In patent US20230399313A1, “BIOLOGICAL ACTIVITIES OF 5-(2-(4-(4-FLUORO-2-METHYL-1H-INDOL-5-YLOXY)-6-METHOXYQUINOLIN-7-YLOXY)ETHYL)-5-AZASPIRO[2.4]-HEPTAN-7-OL CRYSTALLINE, PHOSPHORIC ACID SALT AND ITS ENANTIOMERS” (Advenchen Pharmaceuticals, LLC, priority 2022, published 2023):

What was measured:
[1] = system: murine colorectal CT26 cell line; assay: Murine colorectal CT26 model, combination with anti-mouse PD-1 antibody; type: in vivo, mice; details: for Mean tumor volume D0: D0 (first drug administration time, baseline); for Mean tumor volume D0 / Mean tumor volume D17 / T/C D17: CT26 mice
[2] = molecular target: FGFR1(h) (Homo sapiens, UniProt P11362); assay: Kinase inhibition; type: biochemical
Chain of FGFR1(h) (P11362 22-822): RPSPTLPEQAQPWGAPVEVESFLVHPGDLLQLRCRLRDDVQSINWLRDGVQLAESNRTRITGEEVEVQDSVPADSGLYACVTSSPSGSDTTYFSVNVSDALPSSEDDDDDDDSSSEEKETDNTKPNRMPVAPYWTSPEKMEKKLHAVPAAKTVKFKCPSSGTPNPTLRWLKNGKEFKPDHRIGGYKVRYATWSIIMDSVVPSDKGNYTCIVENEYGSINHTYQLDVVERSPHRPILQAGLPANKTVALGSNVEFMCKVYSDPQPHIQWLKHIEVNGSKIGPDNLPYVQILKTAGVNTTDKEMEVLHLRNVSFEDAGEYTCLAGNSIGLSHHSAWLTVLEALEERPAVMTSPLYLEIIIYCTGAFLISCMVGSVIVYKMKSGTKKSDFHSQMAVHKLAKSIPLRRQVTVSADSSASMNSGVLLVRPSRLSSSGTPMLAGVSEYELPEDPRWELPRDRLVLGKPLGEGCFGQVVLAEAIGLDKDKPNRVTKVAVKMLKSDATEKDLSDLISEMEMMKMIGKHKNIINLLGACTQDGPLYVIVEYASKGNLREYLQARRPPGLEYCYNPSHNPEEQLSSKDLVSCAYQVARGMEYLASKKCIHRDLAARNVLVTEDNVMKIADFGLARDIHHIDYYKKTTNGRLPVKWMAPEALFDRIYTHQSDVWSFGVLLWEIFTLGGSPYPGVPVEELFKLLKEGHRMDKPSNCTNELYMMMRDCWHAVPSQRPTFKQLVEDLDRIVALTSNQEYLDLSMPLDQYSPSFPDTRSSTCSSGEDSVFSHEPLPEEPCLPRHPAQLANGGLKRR
Excerpt: (§1) In vitro tyrosine kinase inhibition activities can be measured via commercial resources. Some of these tests can also be contracted with Eurofin or Reaction Biology for screening.
(§2) For the kinase inhibition tests, receptor tyrosine kinases are selected from FGFR1(h), FGFR2(h), FGFR3(h), Flt1(h) (VEGFr1), Flt4(h) (VEGFr3), KDR(h) (VEGFr2), Aurora-B, PDGFRα(h) and PDGFRβ(h).

[3] = molecular target: Flt1(h) (VEGFr1) (Homo sapiens, UniProt P17948); assay: Kinase inhibition; type: biochemical
Chain of Flt1(h) (VEGFr1) (P17948 27-1338): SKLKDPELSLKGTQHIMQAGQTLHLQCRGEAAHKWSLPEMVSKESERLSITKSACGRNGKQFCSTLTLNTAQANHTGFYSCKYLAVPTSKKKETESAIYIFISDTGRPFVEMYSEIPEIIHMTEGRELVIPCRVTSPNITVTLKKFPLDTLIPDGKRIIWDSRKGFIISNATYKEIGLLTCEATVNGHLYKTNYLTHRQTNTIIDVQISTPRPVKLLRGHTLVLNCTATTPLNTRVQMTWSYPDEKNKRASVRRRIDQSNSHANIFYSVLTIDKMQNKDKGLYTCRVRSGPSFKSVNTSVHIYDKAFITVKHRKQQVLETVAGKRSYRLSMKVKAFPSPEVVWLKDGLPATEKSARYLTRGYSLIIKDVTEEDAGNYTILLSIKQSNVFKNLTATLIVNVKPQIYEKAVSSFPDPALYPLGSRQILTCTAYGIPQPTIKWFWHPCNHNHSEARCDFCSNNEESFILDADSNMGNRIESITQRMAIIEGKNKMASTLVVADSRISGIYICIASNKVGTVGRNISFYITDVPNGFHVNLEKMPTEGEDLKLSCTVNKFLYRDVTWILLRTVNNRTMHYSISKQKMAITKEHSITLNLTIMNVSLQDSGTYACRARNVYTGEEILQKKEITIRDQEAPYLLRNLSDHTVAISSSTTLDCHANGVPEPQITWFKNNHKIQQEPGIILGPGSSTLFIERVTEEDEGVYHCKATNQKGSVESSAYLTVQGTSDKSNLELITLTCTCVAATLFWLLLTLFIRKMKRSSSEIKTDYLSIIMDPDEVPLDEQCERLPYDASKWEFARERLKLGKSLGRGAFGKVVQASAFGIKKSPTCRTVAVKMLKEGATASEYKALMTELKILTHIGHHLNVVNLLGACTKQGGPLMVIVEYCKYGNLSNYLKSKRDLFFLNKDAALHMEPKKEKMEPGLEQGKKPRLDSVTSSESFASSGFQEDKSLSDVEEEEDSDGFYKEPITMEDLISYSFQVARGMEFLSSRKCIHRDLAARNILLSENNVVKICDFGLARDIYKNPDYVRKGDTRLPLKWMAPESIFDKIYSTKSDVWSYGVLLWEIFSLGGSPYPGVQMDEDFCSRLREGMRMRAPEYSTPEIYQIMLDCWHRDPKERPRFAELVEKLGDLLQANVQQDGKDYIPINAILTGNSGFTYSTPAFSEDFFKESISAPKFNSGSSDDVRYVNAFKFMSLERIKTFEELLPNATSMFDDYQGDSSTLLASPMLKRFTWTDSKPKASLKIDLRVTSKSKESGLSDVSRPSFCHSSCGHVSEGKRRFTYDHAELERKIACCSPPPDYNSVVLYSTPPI
Excerpt: as §1, §2

[4] = molecular target: Aurora-B (Homo sapiens, UniProt Q96GD4); assay: Kinase inhibition; type: biochemical
Chain of Aurora-B (Q96GD4 whole entry): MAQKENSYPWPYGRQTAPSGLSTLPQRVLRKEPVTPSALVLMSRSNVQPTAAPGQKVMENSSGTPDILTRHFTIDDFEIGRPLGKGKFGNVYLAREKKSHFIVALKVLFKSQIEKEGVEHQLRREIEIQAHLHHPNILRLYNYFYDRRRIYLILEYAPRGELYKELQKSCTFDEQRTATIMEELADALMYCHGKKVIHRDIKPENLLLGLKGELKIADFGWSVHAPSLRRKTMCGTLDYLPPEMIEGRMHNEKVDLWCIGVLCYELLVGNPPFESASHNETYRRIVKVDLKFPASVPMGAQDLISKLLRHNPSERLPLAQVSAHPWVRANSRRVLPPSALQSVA
Excerpt: as §1, §2

[5] = molecular target: KDR(h) (VEGFr2) (Homo sapiens, UniProt P35968); assay: Kinase inhibition; type: biochemical
Chain of KDR(h) (VEGFr2) (P35968 20-1356): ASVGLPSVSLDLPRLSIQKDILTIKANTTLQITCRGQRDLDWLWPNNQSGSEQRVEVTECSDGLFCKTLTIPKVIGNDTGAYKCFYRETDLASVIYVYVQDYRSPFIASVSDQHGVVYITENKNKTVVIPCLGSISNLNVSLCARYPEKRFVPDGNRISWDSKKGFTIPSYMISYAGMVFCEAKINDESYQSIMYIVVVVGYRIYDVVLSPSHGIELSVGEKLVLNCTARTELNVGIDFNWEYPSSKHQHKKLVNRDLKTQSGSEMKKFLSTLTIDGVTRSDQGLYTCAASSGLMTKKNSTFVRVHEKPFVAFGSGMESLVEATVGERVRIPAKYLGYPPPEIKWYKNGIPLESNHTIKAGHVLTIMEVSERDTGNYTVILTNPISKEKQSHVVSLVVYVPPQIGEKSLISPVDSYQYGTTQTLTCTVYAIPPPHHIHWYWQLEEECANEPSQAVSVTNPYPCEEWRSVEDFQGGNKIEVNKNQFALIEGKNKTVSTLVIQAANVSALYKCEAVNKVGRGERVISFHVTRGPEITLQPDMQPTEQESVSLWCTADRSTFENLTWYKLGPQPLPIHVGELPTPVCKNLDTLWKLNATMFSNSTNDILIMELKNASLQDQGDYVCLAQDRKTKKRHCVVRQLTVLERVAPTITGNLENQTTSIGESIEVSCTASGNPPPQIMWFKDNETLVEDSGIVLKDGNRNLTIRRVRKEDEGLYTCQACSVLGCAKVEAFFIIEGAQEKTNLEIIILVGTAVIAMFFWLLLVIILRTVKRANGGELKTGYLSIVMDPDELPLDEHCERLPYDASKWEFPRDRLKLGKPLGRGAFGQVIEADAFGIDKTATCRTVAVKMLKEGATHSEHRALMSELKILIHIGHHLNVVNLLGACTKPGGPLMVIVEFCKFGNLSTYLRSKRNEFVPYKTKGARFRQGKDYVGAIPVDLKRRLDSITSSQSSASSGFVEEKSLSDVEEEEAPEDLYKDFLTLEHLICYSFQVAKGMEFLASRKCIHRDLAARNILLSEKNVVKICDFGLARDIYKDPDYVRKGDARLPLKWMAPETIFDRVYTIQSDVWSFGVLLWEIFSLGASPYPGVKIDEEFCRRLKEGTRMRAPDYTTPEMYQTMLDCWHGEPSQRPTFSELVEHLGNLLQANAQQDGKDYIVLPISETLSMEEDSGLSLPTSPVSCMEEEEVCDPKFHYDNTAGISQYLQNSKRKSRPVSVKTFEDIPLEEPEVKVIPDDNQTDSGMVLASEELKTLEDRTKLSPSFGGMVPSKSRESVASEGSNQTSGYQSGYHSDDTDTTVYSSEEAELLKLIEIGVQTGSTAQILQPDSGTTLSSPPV
Excerpt: (§3) […]. In vitro tyrosine kinase inhibition activities can be measured via commercial resources. Some of these tests can also be contracted with Eurofin or Reaction Biology for screening.
For the kinase inhibition tests, receptor tyrosine kinases are selected from FGFR1(h), FGFR2(h), FGFR3(h), Flt1(h) (VEGFr1), Flt4(h) (VEGFr3), KDR(h) (VEGFr2), Aurora-B, PDGFRα(h) and PDGFRβ(h). […]. […]

[6] = system: Molt-4; assay: In vitro MTT (proliferation) assay; type: cell-based; details: Homo sapiens, Blood
[7] = system: SGC7901; assay: In vitro MTT (proliferation) assay; type: cell-based; details: Homo sapiens, SGC-7901, Stomach
[8] = system: SCLC NCI-H1436; assay: In vivo xenograft model; parameters: species or system nude mouse; details: oral daily 14-21 days, tumor weight vs control
Method: (§4) Animal antitumor activity in vivo xenograft models with various tumor cell lines (SCLC NCI-H1436, NSCLC 95-D, ovarian SKVO3, renal 786-O, liver Bel-7420, brain U87) were performed as follows: The well grown tumor tissues of tumor cell lines were cut into 3 mm pieces, and each nude mouse was subcutaneously inoculated with one piece into the right flank. The animals were grouped and administered at pre-designed dosing. Treatments were initiated when the tumor size reached above 100 mm^3 after 10-14 days. According to the size of tumor, the animals with oversize or undersize tumors were eliminated, and the animals were grouped with similar average tumor volume. Then the animals were orally administrated daily for continuous 14-21 days. The large diameter a (mm) and the small diameter b (mm) were measured with caliper twice a week after inoculation for 13 days. Each tumor volume was calculated by formular: TV=ab^2/2 and the relative tumor volume was calculated as: RTV=Vt/Vo, Vo represents the tumor volume on the first day of treatment; Vt represents the tumor volume on each measurement day. The animals were executed and tumors were extracted by dissection 20-30 days after inoculation. The individual body weight and tumor weight were determined and calculated. Tumor Inhibit percentage was calculated as [1−((TWt)/(TWc)×100%, where TWt represents mean tumor weight of a treated group on the last day during the experiment, TWc represents mean tumor weight of the control group on the last day during the experiment. Experimental dosing and efficacy results are shown in FIGS. 19-24 of Drawing. The best tumor inhibition percentage ranges are >70% to 100%.

[9] = system: NSCLC 95-D; assay: In vivo xenograft model; parameters: species or system nude mouse; details: 95-D xenograft, oral daily 14-21 days, tumor weight vs control
Method: as §4

[10] = system: liver Bel-7420; assay: In vivo xenograft model; parameters: species or system nude mouse; details: Bel-7420 xenograft, oral daily 14-21 days, tumor weight vs control
Method: as §4

[11] = system: brain U87; assay: In vivo xenograft model; parameters: species or system nude mouse; details: oral daily 14-21 days, tumor weight vs control
Method: as §4

[12] = system: ovarian SKVO3; assay: In vivo xenograft model; parameters: species or system nude mouse; details: oral daily 14-21 days, tumor weight vs control
Method: as §4

[13] = system: renal 786-O; assay: In vivo xenograft model; parameters: species or system nude mouse; details: 786-O xenograft, oral daily 14-21 days, tumor weight vs control
Method: as §4

[14] = molecular target: PDGFRα(h) (Homo sapiens, UniProt P16234); assay: Kinase inhibition; type: biochemical
Excerpt: as §3
(§5) For the kinase inhibition tests, receptor tyrosine kinases are selected from FGFR1(h), FGFR2(h), FGFR3(h), Flt1(h) (VEGFr1), Flt4(h) (VEGFr3), KDR(h) (VEGFr2), Aurora-B, PDGFRα(h) and PDGFRβ(h). […] […].

[15] = molecular target: PDGFRβ(h) (Homo sapiens, UniProt P09619); assay: Kinase inhibition; type: biochemical
Chain of PDGFRβ(h) (P09619 33-1106): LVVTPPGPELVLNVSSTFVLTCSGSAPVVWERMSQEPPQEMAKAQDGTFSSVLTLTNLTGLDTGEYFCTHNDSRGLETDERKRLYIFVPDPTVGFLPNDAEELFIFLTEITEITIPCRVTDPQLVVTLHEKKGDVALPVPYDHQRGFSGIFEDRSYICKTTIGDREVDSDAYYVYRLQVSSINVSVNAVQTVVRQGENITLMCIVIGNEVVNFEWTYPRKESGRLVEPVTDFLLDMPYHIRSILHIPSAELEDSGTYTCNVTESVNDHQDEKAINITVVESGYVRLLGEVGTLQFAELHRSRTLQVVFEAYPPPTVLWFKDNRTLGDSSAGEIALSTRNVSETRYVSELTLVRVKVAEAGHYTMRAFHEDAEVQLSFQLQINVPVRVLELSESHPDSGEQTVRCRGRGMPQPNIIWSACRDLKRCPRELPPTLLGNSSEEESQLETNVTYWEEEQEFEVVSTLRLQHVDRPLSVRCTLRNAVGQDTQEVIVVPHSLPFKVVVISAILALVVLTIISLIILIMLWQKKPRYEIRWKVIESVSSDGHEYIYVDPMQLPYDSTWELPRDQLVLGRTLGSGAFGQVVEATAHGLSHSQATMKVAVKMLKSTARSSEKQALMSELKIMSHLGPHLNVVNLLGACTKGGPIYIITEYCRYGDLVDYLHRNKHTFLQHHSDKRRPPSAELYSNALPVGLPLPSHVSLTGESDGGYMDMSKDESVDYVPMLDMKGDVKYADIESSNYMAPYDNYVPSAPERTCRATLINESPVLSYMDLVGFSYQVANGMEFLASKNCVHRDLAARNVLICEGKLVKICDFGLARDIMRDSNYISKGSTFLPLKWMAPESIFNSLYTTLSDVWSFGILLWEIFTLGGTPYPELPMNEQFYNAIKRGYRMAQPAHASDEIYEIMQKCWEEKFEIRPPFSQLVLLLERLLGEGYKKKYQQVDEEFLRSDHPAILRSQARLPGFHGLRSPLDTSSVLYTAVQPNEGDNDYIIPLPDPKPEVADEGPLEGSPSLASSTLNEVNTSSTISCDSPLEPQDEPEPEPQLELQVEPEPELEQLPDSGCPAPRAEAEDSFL
Excerpt: as §3, §5

[16] = system: U937; assay: In vitro MTT (proliferation) assay; type: cell-based; details: Homo sapiens, U-937, Blood
Method: (§6) The inhibitions of Compound A-Xln, Compound A-P-Xln and two chiral isomers (Compound R-A, Compound S-A) to cancer cell lines are tested via in vitro MTT assay. Cancer cell lines are selected from PANC-1, NCI-H157, MDA-MB-231, Hela, PC-3, BEL7404, MKN45, Ishikawa, Saos-2, SKOV3, SW579 and HCT116 cell lines. The IC50 values are in the micromole scale.
(§7) In vitro MTT (proliferation) assay was performed with compound from above examples to give following inhibition results: […]

[17] = system: Hela; assay: In vitro MTT (proliferation) assay; type: cell-based; details: Homo sapiens; Cervix, Hela; read-out: IC50
Method: as §6, §7

[18] = system: HCT-116; assay: In vitro MTT (proliferation) assay; type: cell-based; details: Homo sapiens, Colon, read-out: IC50
Method: as §6, §7

[19] = system: MDA-MB-231; assay: In vitro MTT (proliferation) assay; type: cell-based; details: Homo sapiens; Breast, MDA-MB-231; read-out: IC50
Method: as §6, §7

[20] = system: SKOV3; assay: In vitro MTT (proliferation) assay; type: cell-based; details: Homo sapiens, SK-OV-3; Ovary, SKOV3; read-out: IC50
Method: as §6, §7

[21] = system: K562; assay: In vitro MTT (proliferation) assay; type: cell-based; details: Homo sapiens, Blood

`COc1cc2c(Oc3ccc4[nH]c(C)cc4c3F)ccnc2cc1OCCN1CC(O)C2(CC2)C1` (stereo not drawn) [Compound A-Xln, 5-(2-(4-(4-fluoro-2-methyl-1H-indol-5-yloxy)-6-methoxyquinolin-7-yloxy)ethyl)-5-azaspiro[2.4]-heptan-7-ol] was tested, and the “Mean tumor volume D0” value ([1]; 5 mg/kg/Qd i.g.) was 127.8 mm^3, the “Mean tumor volume D17” value ([1]; 5 mg/kg/Qd i.g.) was 1625.3 mm^3 and the “T/C D17” value ([1]; 5 mg/kg/Qd i.g.) was 72.04%. For the same compound, the “Mean tumor volume D0” value ([1]; 15 mg/kg/Qd i.g.) was 128.5 mm^3, the “Mean tumor volume D17” value ([1]; 15 mg/kg/Qd i.g.) was 829.0 mm^3 and the “T/C D17” value ([1]; 15 mg/kg/Qd i.g.) was 36.67%. For the same compound, the “Efficacy of combination treatment with an anti-PD1 antibody agent” value ([1]; CT26 model, Compound A-Xln once daily plus anti-mouse PD-1 200 μg/mouse every 3 days) was “increased efficacy”, the IC50 [2] was 0.004 µM and the IC50 [3] was 0.004 µM. It also gave an IC50 [4] of 0.047 µM, an IC50 [5] of 0.015 µM and an IC50 [6] of 5.53 ± 2.78 µM. The IC50 [7] was 6.64 ± 0.81 µM, the “best tumor inhibition percentage” value [8] was greater than 70% and the “best tumor inhibition percentage” value [9] was greater than 70%. For the same compound, the “best tumor inhibition percentage” value [10] was greater than 70%, the “best tumor inhibition percentage” value [11] was greater than 70% and the “best tumor inhibition percentage” value [12] was greater than 70%. The “best tumor inhibition percentage” value [13] was greater than 70%, the IC50 [14] was 0.16 µM and the IC50 [15] was 0.026 µM. It also gave an IC50 [16] of 10 ± 2.28 µM, an IC50 [17] of 11.2 ± 2.71 µM and an IC50 [18] of 11.7 ± 3.69 µM. The IC50 [19] was 7.77 ± 0.02 µM, the IC50 [20] was 17.1 ± 0.55 µM and the IC50 [21] was 6.37 ± 2.56 µM.
